Assay results taken from patent US10189838B2, “Aza-oxo-indoles for the treatment and prophylaxis of respiratory syncytial virus infection” (Hoffmann-La Roche Inc., priority 2013, dated 2019).
pEC50: −log10 of the molar value.

Test system: RSV Long strain
Assay: Viral cytopathic effect (CPE) assay, RSV Long strain
Assay type: cell-based, Respiratory Syncytial Virus
Settings: human respiratory syncytial virus, 144 h, cell viability after 6 days (Cell Counting kit-8)
Procedure: EC50: the concentration of a compound where 50% of its maximal protection effect against viral induced CPE is observed
LongStrain: an A subtype RSV strain obtained from ATCC with catalog number VR-26
To measure anti-RSV activity of compounds, 96-well plates are seeded with 6×10^3 cells per well in Dulbecco's modified Eagle's medium (DMEM) containing 10% fetal bovine serum (FBS). Cells are infected the next day with sufficient RSV Long strain (ATCC) to produce an approximately 80-90% cytopathic effect after 6 days, in the presence of serial half-log diluted compound in a total volume of […] per well. The viability of cells is assessed after 6 days using Cell Counting kit-8 (Dojindo Molecular Technologies). The absorbance at 450 nm and referenced at 630 nm is measured to determine 50% effective concentration (EC50)

Row | Compound | pEC50
1 | CS(=O)(=O)CCn1c(CN2C(=O)C3(CC3)c3ccncc32)cc2cc(Cl)ncc21 [Example 5-2, 1′-({5-Chloro-1-[2-(methylsulfonyl)ethyl]-1H-pyrrolo[2,3-c]pyridin-2-yl}methyl)spiro[cyclopropane-1,3′-pyrrolo[2,3-c]pyridin]-2′(1′H)-one] | 6.57
2 | CCS(=O)(=O)CCn1c(CN2C(=O)C3(CC3)c3ccncc32)cc2nc(Cl)ccc21 [Example 6, 1′-({5-Chloro-1-[2-(ethylsulfonyl)ethyl]-1H-pyrrolo[3,2-b]pyridin-2-yl}methyl)spiro[cyclopropane-1,3′-pyrrolo[2,3-c]pyridin]-2′(1′H)-one] | 6.88
3 | CN(C)S(=O)(=O)CCCn1c(CN2C(=O)C3(CC3)c3ccncc32)cc2cc(Cl)ccc21 [Example 7-1, 3-{5-Chloro-2-[(2′-oxospiro[cyclopropane-1,3′-pyrrolo[2,3-c]pyridin]-1′(2′H)-yl)methyl]-1H-indol-1-yl}-N,N-dimethylpropane-1-sulfonamide] | 8.15
4 | CN(C)S(=O)(=O)CCCn1c(CN2C(=O)C3(CC3)c3ccncc32)cc2cc(Cl)cnc21 [Example 7-2, 3-{5-Chloro-2-[(2′-oxospiro[cyclopropane-1,3′-pyrrolo[2,3-c]pyridin]-1′(2′H)-yl)methyl]-1H-pyrrolo[2,3-b]pyridin-1-yl}-N,N-dimethylpropane-1-sulfonamide] | 7.19
5 | CN(C)S(=O)(=O)CCn1c(CN2C(=O)C3(CC3)c3ccncc32)cc2cc(Cl)ccc21 [Example 7-3, 2-{5-Chloro-2-[(2′-oxospiro[cyclopropane-1,3′-pyrrolo[2,3-c]pyridin]-1′(2′H)-yl)methyl]-1H-indol-1-yl}-N,N-dimethylethanesulfonamide] | 7.64
6 | O=C1N(Cc2cc3cc(Cl)ccc3n2CCCS(=O)(=O)N2CCOCC2)c2cnccc2C12CC2 [Example 7-4, 1′-({5-Chloro-1-[3-(morpholin-4-ylsulfonyl)propyl]-1H-indol-2-yl}methyl)spiro[cyclopropane-1,3′-pyrrolo[2,3-c]pyridin]-2′(1′H)-one] | 7.85
7 | O=C1N(Cc2cc3cc(Cl)ccc3n2CCCS(=O)(=O)N2CCCC2)c2cnccc2C12CC2 [Example 7-5, 1′-({5-Chloro-1-[3-(pyrrolidin-1-ylsulfonyl)propyl]-1H-indol-2-yl}methyl)spiro[cyclopropane-1,3′-pyrrolo[2,3-c]pyridin]-2′(1′H)-one] | 7.70
8 | O=C1CN(S(=O)(=O)CCCn2c(CN3C(=O)C4(CC4)c4ccncc43)cc3cc(Cl)ccc32)CCN1 [Example 7-6, 1′-[(5-Chloro-1-{3-[(3-oxopiperazin-1-yl)sulfonyl]propyl}-1H-indol-2-yl)methyl]spiro[cyclopropane-1,3′-pyrrolo[2,3-c]pyridin]-2′(1′H)-one] | 8.15
9 | O=C1N(Cc2cc3cc(Cl)ccc3n2CCN2CCCS2(=O)=O)c2cnccc2C12CC2 [Example 7-7, 1′-({5-Chloro-1-[2-(1,1-dioxido-1,2-thiazolidin-2-yl)ethyl]-1H-indol-2-yl}methyl)spiro[cyclopropane-1,3′-pyrrolo[2,3-c]pyridin]-2′(1′H)-one] | 7.46
10 | O=C1N(Cc2cc3cc(Cl)ccc3n2CCCCN2CCCS2(=O)=O)c2cnccc2C12CC2 [Example 7-8, 1′-({5-Chloro-1-[4-(1,1-dioxido-1,2-thiazolidin-2-yl)butyl]-1H-indol-2-yl}methyl)spiro[cyclopropane-1,3′-pyrrolo[2,3-c]pyridin]-2′(1′H)-one] | 7.74
11 | O=C1N(Cc2cc3cc(Cl)ccc3n2CCCN2CCS(=O)(=O)CC2)c2cnccc2C12CC2 [Example 7-9, 1′-({5-Chloro-1-[3-(1,1-dioxidothiomorpholin-4-yl)propyl]-1H-indol-2-yl}methyl)spiro[cyclopropane-1,3′-pyrrolo[2,3-c]pyridin]-2′(1′H)-one] | 6.10
12 | O=C1N(Cc2cc3cc(Cl)ccc3n2CCCN2CCCS2(=O)=O)c2cnccc2C12CC2 [Example 7-10, 1′-({5-Chloro-1-[3-(1,1-dioxido-1,2-thiazolidin-2-yl)propyl]-1H-indol-2-yl}methyl)spiro[cyclopropane-1,3′-pyrrolo[2,3-c]pyridin]-2′(1′H)-one] | 7.54
13 | O=C1N(Cc2cc3cc(Cl)ccc3n2CCCO)c2cnccc2C12CC2 [Example 8, 1′-{[5-Chloro-1-(3-hydroxypropyl)-1H-indol-2-yl]methyl}spiro[cyclopropane-1,3′-pyrrolo[2,3-c]pyridin]-2′(1′H)-one] | 7.24
14 | [2H]C([2H])(c1cc2cc(Cl)ccc2n1CCS(C)(=O)=O)N1C(=O)C2(CC2)c2ccncc21 [Example 9, 1′-[{5-Chloro-1-[2-(methylsulfonyl)ethyl]-1H-indol-2-yl}(^2H2)methyl]spiro[cyclopropane-1,3′-pyrrolo[2,3-c]pyridin]-2′(1′H)-one] | 7.72
15 | [2H]C([2H])(c1cc2cc(Cl)ccc2n1CCCS(C)(=O)=O)N1C(=O)C2(CC2)c2ccncc21 [Example 10, 1′[{-5-Chloro-1-[3-(methylsulfonyl)propyl]-1H-indol-2-yl}(^2H2)methyl]spiro[cyclopropane-1,3′-pyrrolo[2,3-c]pyridin]-2′(1′H)-one] | 7.72
16 | CCOC(=O)CCn1c(CN2C(=O)C3(CC3)c3ccncc32)cc2cc(Cl)ccc21 [Example 11, Ethyl 3-{5-chloro-2-[(2′-oxospiro[cyclopropane-1,3′-pyrrolo[2,3-c]pyridin]-1′(2′H)-yl)methyl]-1H-indol-1-yl}propanoate] | 7.72
17 | O=C1N(Cc2cc3cc(Cl)cnc3n2CCC2CS(=O)(=O)C2)c2cnccc2C12CC2 [Example 12, 1′-({5-Chloro-1-[2-(1,1-dioxidothietan-3-yl)ethyl]-1H-pyrrolo[2,3-b]pyridin-2-yl}methyl)spiro[cyclopropane-1,3′-pyrrolo[2,3-c]pyridin]-2′(1′H)-one] | 7.54
18 | CCOC(=O)CCn1c(CN2C(=O)C3(CC3)c3ccncc32)cc2cc(Cl)cc(F)c21 [Example 13, Ethyl 3-{5-chloro-7-fluoro-2-[(2′-oxospiro[cyclopropane-1,3′-pyrrolo[2,3-c]pyridin]-1′(2′H)-yl)methyl]-1H-indol-1-yl}propanoate] | 7.74
19 | CS(=N)(=O)CCCn1c(CN2C(=O)C3(CC3)c3ccncc32)cc2cc(Cl)ccc21 (centres unmarked) [Example 14-1, 1′-({5-Chloro-1-[3-(S-methylsulfonimidoyl)propyl]-1H-indol-2-yl}methyl)spiro[cyclopropane-1,3′-pyrrolo[2,3-c]pyridin]-2′(1′H)-one] | 8.22
20 | CS(=N)(=O)CCn1c(CN2C(=O)C3(CC3)c3ccncc32)cc2cc(Cl)ccc21 (centres unmarked) [Example 14-2, 1′-({5-Chloro-1-[2-(S-methylsulfonimidoyl)ethyl]-1H-indol-2-yl}methyl)spiro[cyclopropane-1,3′-pyrrolo[2,3-c]pyridin]-2′(1′H)-one] | 8.15
21 | CS(=N)(=O)CCCCn1c(CN2C(=O)C3(CC3)c3ccncc32)cc2cc(Cl)cnc21 (centres unmarked) [Example 14-3, 1′-({5-Chloro-1-[4-(S-methylsulfonimidoyl)butyl]-1H-pyrrolo[2,3-b]pyridin-2-yl}methyl)spiro[cyclopropane-1,3′-pyrrolo[2,3-c]pyridin]-2′(1′H)-one] | 7.13
22 | CS(=N)(=O)CCn1c(CN2C(=O)C3(CC3)c3ccncc32)cc2cc(Cl)cnc21 (centres unmarked) [Example 14-4, 1′-({5-Chloro-1-[2-(S-methylsulfonimidoyl)ethyl]-1H-pyrrolo[2,3-b]pyridin-2-yl}methyl)spiro[cyclopropane-1,3′-pyrrolo[2,3-c]pyridin]-2′(1′H)-one] | 6.76
23 | CC(=O)N=S(C)(=O)CCn1c(CN2C(=O)C3(CC3)c3ccncc32)cc2cc(Cl)ccc21 (centres unmarked) [Example 15, N-[(2-{5-Chloro-2-[(2′-oxospiro[cyclopropane-1,3′-pyrrolo[2,3-c]pyridin]-1′(2′H)-yl)methyl]-1H-indol-1-yl}ethyl)(methyl)oxido-λ^6-sulfanylidene]acetamide] | 7.60
24 | O=C(O)CCn1c(CN2C(=O)C3(CC3)c3ccncc32)cc2cc(Cl)ccc21 [Example 16-1, 3-{5-Chloro-2-[(2′-oxospiro[cyclopropane-1,3′-pyrrolo[2,3-c]pyridin]-1′(2′H)-yl)methyl]-1H-indol-1-yl}propanoic acid] | 6.41
25 | O=C(O)CCn1c(CN2C(=O)C3(CC3)c3ccncc32)cc2cc(Cl)cc(F)c21 [Example 16-2, 3-{5-Chloro-7-fluoro-2-[(2′-oxospiro[cyclopropane-1,3′-pyrrolo[2,3-c]pyridin]-1′(2′H)-yl)methyl]-1H-indol-1-yl}propanoic acid] | 6.52
26 | COC(=O)CCCn1c(CN2C(=O)C3(CC3)c3ccncc32)cc2cc(Cl)ccc21 [Example 17, Methyl 4-{5-chloro-2-[(2′-oxospiro[cyclopropane-1,3′-pyrrolo[2,3-c]pyridin]-1′(2′H)-yl)methyl]-1H-indol-1-yl}butanoate] | 7.73
27 | NC(=O)CCn1c(CN2C(=O)C3(CC3)c3ccncc32)cc2cc(Cl)ccc21 [Example 18-1, 3-{5-Chloro-2-[(2′-oxospiro[cyclopropane-1,3′-pyrrolo[2,3-c]pyridin]-1′(2′H)-yl)methyl]-1H-indol-1-yl}propanamide] | 7.77
28 | NC(=O)CCn1c(CN2C(=O)C3(CC3)c3cccnc32)cc2cc(Cl)ccc21 [Example 18-2, 3-{5-Chloro-2-[(2′-oxospiro[cyclopropane-1,3′-pyrrolo[2,3-b]pyridin]-1′(2′H)-yl)methyl]-1H-indol-1-yl}propanamide] | 6.15
29 | NC(=O)CCCn1c(CN2C(=O)C3(CC3)c3ccncc32)cc2cc(Cl)ccc21 [Example 18-3, 4-{5-Chloro-2-[(2′-oxospiro[cyclopropane-1,3′-pyrrolo[2,3-c]pyridin]-1′(2′H)-yl)methyl]-1H-indol-1-yl}butanamide] | 7.96
